Patent US11000033B2, “Ketone or oxime compound, and herbicide” (NISSAN CHEMICAL CORPORATION, priority 2014, dated 2021)

Assays:
Assay type in all cases: in vivo
Setaria viridis [1] = experiment: Test Example 5: herbicidal effect by foliage application, plastic box (symbol G); conditions: 320 g/ha, 3 weeks after application
How it was run: (§1)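 Sowing in sterilized diluvial soil, 14 days' greenhouse growth at 25° C. to 30° C., then uniform small-sprayer foliar application of aqueous emulsion dilution; plants scored three weeks afterwards.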

rapeseed [2] = experiment: Test Example 4: effect on crop by soil treatment (symbol g); conditions: application herbicide amount 320 g/ha
Source text: (§2) Herbicidal Effect Test by Soil Treatment
(§3) Sterilized diluvial soil was placed in a plastic box having a length of 21 cm, a width of 13 cm, and a depth of 7 cm. Each of the seeds of Digitaria ciliaris, Setaria viridis, Echinochloa crus-galli var. crus-galli, Avena fatua, Alopecurus myosuroides, Lolium multiflorum Lam., Apera spica-venti, Abutilon theophrasti, Amaranthus retroflexus, Chenopodium album, Stellaria media, Galium spurium, Veronica persica, corn, soybean, rice, wheat, beet, and rapeseed was sowed in a spot-like manner and was covered with the soil of a thickness of about 1.5 cm. […] The plastic box was placed in a greenhouse of 25° C. to 30° C. to grow plant.

wheat [3] = experiment: Test Example 5: effect on crop by foliage application, plastic box (symbol e); conditions: 320 g/ha, 3 weeks after application
How it was run: (§4)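 A greenhouse held between 25° C. and 30° C. was used to grow plants sown spot-wise, beneath ~1.5 cm of soil, in boxes of sterilized diluvial soil.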

Abutilon theophrasti [4] = experiment: Test Example 5: herbicidal effect by foliage application, plastic box (symbol M); conditions: 320 g/ha, 3 weeks after application
How it was run: as §1

rice plant = experiment: Test Example 5: effect on crop by foliage application, plastic box (symbol b); conditions: 320 g/ha, 3 weeks after application
How it was run: as §4

Alopecurus myosuroides [5] = experiment: Test Example 4: herbicidal effect by soil treatment (symbol J); conditions: application herbicide amount 320 g/ha
Source text: as §2
(§5) Sterilized diluvial soil was placed in a plastic box having a length of 21 cm, a width of 13 cm, and a depth of 7 cm. Each of the seeds of Digitaria ciliaris, Setaria viridis, Echinochloa crus-galli var. crus-galli, Avena fatua, Alopecurus myosuroides, Lolium multiflorum Lam., Apera spica-venti, Abutilon theophrasti, Amaranthus retroflexus, Chenopodium album, Stellaria media, Galium spurium, Veronica persica, corn, soybean, rice, wheat, beet, and rapeseed was sowed in a spot-like manner and was covered with the soil of a thickness of about 1.5 cm. Subsequently, the emulsion agent of the compound present invention prepared in accordance with Formulation Example 2 was diluted with water so as to be a predetermined herbicide amount and the diluted emulsion agent was uniformly applied to the surface of the soil with a small-size spray. The plastic box was placed in a greenhouse of 25° C. to 30° C. to grow plant. 3 weeks later from the herbicide application, the effect to each plant was investigated in accordance with the criteria of Test Example 1.

Digitaria ciliaris [6] = experiment: Test Example 4: herbicidal effect by soil treatment (symbol F); conditions: application herbicide amount 320 g/ha
Source text: as §2, §5

Apera spica-venti [7] = experiment: Test Example 5: herbicidal effect by foliage application, plastic box (symbol L); conditions: 320 g/ha, 3 weeks after application
How it was run: as §1

Veronica persica [8] = experiment: Test Example 4: herbicidal effect by soil treatment (symbol R); conditions: application herbicide amount 320 g/ha
Source text: as §2, §5

beet [9] = experiment: Test Example 5: effect on crop by foliage application, plastic box (symbol f); conditions: 320 g/ha, 3 weeks after application
How it was run: as §4

Lolium multiflorum Lam. [10] = experiment: Test Example 4: herbicidal effect by soil treatment (symbol K); conditions: application herbicide amount 320 g/ha
Source text: as §2, §5

Amaranthus retroflexus [11] = experiment: Test Example 5: herbicidal effect by foliage application, plastic box (symbol N); conditions: 320 g/ha, 3 weeks after application
How it was run: as §1

wheat [12] = experiment: Test Example 4: effect on crop by soil treatment (symbol e); conditions: application herbicide amount 320 g/ha
Source text: as §2, §3

[13] = system: Echinochloa crus-galli var. crus-galli; experiment: Test Example 5: herbicidal effect by foliage application, plastic box (symbol H); conditions: 320 g/ha, 3 weeks after application
How it was run: as §1

Lolium multiflorum Lam. [14] = experiment: Test Example 5: herbicidal effect by foliage application, plastic box (symbol K); conditions: 320 g/ha, 3 weeks after application
How it was run: as §1

Chenopodium album [15] = experiment: Test Example 4: herbicidal effect by soil treatment (symbol O); conditions: application herbicide amount 320 g/ha
Source text: as §2, §5

rapeseed [16] = experiment: Test Example 5: effect on crop by foliage application, plastic box (symbol g); conditions: 320 g/ha, 3 weeks after application
How it was run: as §4

Stellaria media [17] = experiment: Test Example 5: herbicidal effect by foliage application, plastic box (symbol P); conditions: 320 g/ha, 3 weeks after application
How it was run: as §1

Stellaria media [18] = experiment: Test Example 4: herbicidal effect by soil treatment (symbol P); conditions: application herbicide amount 320 g/ha
Source text: as §2, §5

[19] = system: Echinochloa crus-galli var. crus-galli; experiment: Test Example 4: herbicidal effect by soil treatment (symbol H); conditions: application herbicide amount 320 g/ha
Source text: as §2, §5

rice = experiment: Test Example 4: effect on crop by soil treatment (symbol b); conditions: application herbicide amount 320 g/ha
Source text: as §2, §3

Monochoria vaginalis = experiment: Test Example 2: herbicidal activity, application during weed generation in submerged conditions (symbol C); conditions: Table 23; application herbicide amount 320 g/ha; grade 0-5 by criteria of Test Example 1
How it was run: (§6)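 Each pot contained alluvial soil under 4 cm of water with seeds of all three weeds sown together. Following growth at 25° C. to 30° C. to the one- to two-leaf stage, the floodwater received diluted emulsion at a predetermined amount; visual assessment followed at 3 weeks.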

Avena fatua [20] = experiment: Test Example 4: herbicidal effect by soil treatment (symbol I); conditions: application herbicide amount 320 g/ha
Source text: as §2, §5

Galium spurium = experiment: Test Example 4: herbicidal effect by soil treatment (symbol Q); conditions: application herbicide amount 320 g/ha
Source text: as §2, §5

Chenopodium album [21] = experiment: Test Example 5: herbicidal effect by foliage application, plastic box (symbol O); conditions: 320 g/ha, 3 weeks after application
How it was run: as §1

Digitaria ciliaris [22] = experiment: Test Example 5: herbicidal effect by foliage application, plastic box (symbol F); conditions: 320 g/ha, 3 weeks after application
How it was run: as §1

corn [23] = experiment: Test Example 5: effect on crop by foliage application, plastic box (symbol c); conditions: 320 g/ha, 3 weeks after application
How it was run: as §4

Veronica persica [24] = experiment: Test Example 5: herbicidal effect by foliage application, plastic box (symbol R); conditions: 320 g/ha, 3 weeks after application
How it was run: as §1

corn [25] = experiment: Test Example 4: effect on crop by soil treatment (symbol c); conditions: application herbicide amount 320 g/ha
Source text: as §2, §3

soybean [26] = experiment: Test Example 4: effect on crop by soil treatment (symbol d); conditions: application herbicide amount 320 g/ha
Source text: as §2, §3

soybean [27] = experiment: Test Example 5: effect on crop by foliage application, plastic box (symbol d); conditions: 320 g/ha, 3 weeks after application
How it was run: as §4

Setaria viridis [28] = experiment: Test Example 4: herbicidal effect by soil treatment (symbol G); conditions: application herbicide amount 320 g/ha
Source text: as §2, §5

Alopecurus myosuroides [29] = experiment: Test Example 5: herbicidal effect by foliage application, plastic box (symbol J); conditions: 320 g/ha, 3 weeks after application
How it was run: as §1

Abutilon theophrasti [30] = experiment: Test Example 4: herbicidal effect by soil treatment (symbol M); conditions: application herbicide amount 320 g/ha
Source text: as §2, §5

Avena fatua [31] = experiment: Test Example 5: herbicidal effect by foliage application, plastic box (symbol I); conditions: 320 g/ha, 3 weeks after application
How it was run: as §1

Amaranthus retroflexus [32] = experiment: Test Example 4: herbicidal effect by soil treatment (symbol N); conditions: application herbicide amount 320 g/ha
Source text: as §2, §5

Apera spica-venti [33] = experiment: Test Example 4: herbicidal effect by soil treatment (symbol L); conditions: application herbicide amount 320 g/ha
Source text: as §2, §5

Scirpus juncoides = experiment: Test Example 2: herbicidal activity, application during weed generation in submerged conditions (symbol B); conditions: Table 23; application herbicide amount 320 g/ha; grade 0-5 by criteria of Test Example 1
How it was run: as §6

beet [34] = experiment: Test Example 4: effect on crop by soil treatment (symbol f); conditions: application herbicide amount 320 g/ha
Source text: as §2, §3

[35] = system: Echinochloa oryzacola Vasing.; experiment: Test Example 2: herbicidal activity, application during weed generation in submerged conditions (symbol A); conditions: Table 23; application herbicide amount 320 g/ha; grade 0-5 by criteria of Test Example 1
How it was run: as §6

CC(=O)CC1CC(O)=C(c2c(C)cc(C3CC3)cc2C)C1=O (stereo not shown) [7-013]
G: Setaria viridis, herbicidal effect (criteria of Test Example 1) (Setaria viridis [1]): 2 (Herbicidal ratio of 20% or higher and lower than 40%)
Effect on crop grade, g: rapeseed (rapeseed [2]): 0 (Herbicidal ratio of 5% or lower (almost no effect))
e: wheat, effect on crop (criteria of Test Example 1) (wheat [3]): 0 (Herbicidal ratio of 5% or lower (almost no effect))
M: Abutilon theophrasti, herbicidal effect (criteria of Test Example 1) (Abutilon theophrasti [4]): 0 (Herbicidal ratio of 5% or lower (almost no effect))
b: directly sowed rice plant, effect on crop (criteria of Test Example 1) (rice plant): 1 (Herbicidal ratio of 5% or higher and lower than 20%)
Herbicidal effect grade, J: Alopecurus myosuroides (Alopecurus myosuroides [5]): 0 (Herbicidal ratio of 5% or lower (almost no effect))
Herbicidal effect grade, F: Digitaria ciliaris (Digitaria ciliaris [6]): 3 (Herbicidal ratio of 40% or higher and lower than 70%)
L: Apera spica-venti, herbicidal effect (criteria of Test Example 1) (Apera spica-venti [7]): 0 (Herbicidal ratio of 5% or lower (almost no effect))
Herbicidal effect grade, R: Veronica persica (Veronica persica [8]): 0 (Herbicidal ratio of 5% or lower (almost no effect))
f: beet, effect on crop (criteria of Test Example 1) (beet [9]): 0 (Herbicidal ratio of 5% or lower (almost no effect))
Herbicidal effect grade, K: Lolium multiflorum Lam. (Lolium multiflorum Lam. [10]): 0 (Herbicidal ratio of 5% or lower (almost no effect))
N: Amaranthus retroflexus, herbicidal effect (criteria of Test Example 1) (Amaranthus retroflexus [11]): 5 (Herbicidal ratio of 90% or more (almost completely withered))
Effect on crop grade, e: wheat (wheat [12]): 0 (Herbicidal ratio of 5% or lower (almost no effect))
H: Echinochloa crus-galli var. crus-galli, herbicidal effect (criteria of Test Example 1) [13]: 1 (Herbicidal ratio of 5% or higher and lower than 20%)
K: Lolium multiflorum Lam., herbicidal effect (criteria of Test Example 1) (Lolium multiflorum Lam. [14]): 3 (Herbicidal ratio of 40% or higher and lower than 70%)
Herbicidal effect grade, O: Chenopodium album (Chenopodium album [15]): 0 (Herbicidal ratio of 5% or lower (almost no effect))
g: rapeseed, effect on crop (criteria of Test Example 1) (rapeseed [16]): 1 (Herbicidal ratio of 5% or higher and lower than 20%)
P: Stellaria media, herbicidal effect (criteria of Test Example 1) (Stellaria media [17]): 0 (Herbicidal ratio of 5% or lower (almost no effect))
Herbicidal effect grade, P: Stellaria media (Stellaria media [18]): 0 (Herbicidal ratio of 5% or lower (almost no effect))
Herbicidal effect grade, H: Echinochloa crus-galli var. crus-galli [19]: 0 (Herbicidal ratio of 5% or lower (almost no effect))
Effect on crop grade, b: directly sowed rice plant (rice): 4 (Herbicidal ratio of 70% or higher and lower than 90%)
Herbicidal effect grade, C: Monochoria vaginalis (Monochoria vaginalis): 0 (Herbicidal ratio of 5% or lower (almost no effect))
Herbicidal effect grade, I: Avena fatua (Avena fatua [20]): 0 (Herbicidal ratio of 5% or lower (almost no effect))
Herbicidal effect grade, Q: Galium spurium (Galium spurium): 0 (Herbicidal ratio of 5% or lower (almost no effect))
O: Chenopodium album, herbicidal effect (criteria of Test Example 1) (Chenopodium album [21]): 0 (Herbicidal ratio of 5% or lower (almost no effect))
F: Digitaria ciliaris, herbicidal effect (criteria of Test Example 1) (Digitaria ciliaris [22]): 4 (Herbicidal ratio of 70% or higher and lower than 90%)
c: corn, effect on crop (criteria of Test Example 1) (corn [23]): 0 (Herbicidal ratio of 5% or lower (almost no effect))
R: Veronica persica, herbicidal effect (criteria of Test Example 1) (Veronica persica [24]): 0 (Herbicidal ratio of 5% or lower (almost no effect))
Effect on crop grade, c: corn (corn [25]): 0 (Herbicidal ratio of 5% or lower (almost no effect))
Effect on crop grade, d: soybean (soybean [26]): 0 (Herbicidal ratio of 5% or lower (almost no effect))
d: soybean, effect on crop (criteria of Test Example 1) (soybean [27]): 0 (Herbicidal ratio of 5% or lower (almost no effect))
Herbicidal effect grade, G: Setaria viridis (Setaria viridis [28]): 0 (Herbicidal ratio of 5% or lower (almost no effect))
J: Alopecurus myosuroides, herbicidal effect (criteria of Test Example 1) (Alopecurus myosuroides [29]): 3 (Herbicidal ratio of 40% or higher and lower than 70%)
Herbicidal effect grade, M: Abutilon theophrasti (Abutilon theophrasti [30]): 0 (Herbicidal ratio of 5% or lower (almost no effect))
I: Avena fatua, herbicidal effect (criteria of Test Example 1) (Avena fatua [31]): 1 (Herbicidal ratio of 5% or higher and lower than 20%)
Herbicidal effect grade, N: Amaranthus retroflexus (Amaranthus retroflexus [32]): 0 (Herbicidal ratio of 5% or lower (almost no effect))
Herbicidal effect grade, L: Apera spica-venti (Apera spica-venti [33]): 0 (Herbicidal ratio of 5% or lower (almost no effect))
Herbicidal effect grade, B: Scirpus juncoides (Scirpus juncoides): 0 (Herbicidal ratio of 5% or lower (almost no effect))
Effect on crop grade, f: beet (beet [34]): 0 (Herbicidal ratio of 5% or lower (almost no effect))
Herbicidal effect grade, A: Echinochloa oryzacola Vasing. [35]: 2 (Herbicidal ratio of 20% or higher and lower than 40%)
